Results: article PMC4102551, “Screening and Characterisation of Antimicrobial Properties of Semisynthetic Betulin Derivatives” (PLoS ONE, 2014)
Where two headings read alike, the source gives them in different places.

Tests used:
E. aerogenes ATCC 13048 = assay: Broth microdilution assay, E. aerogenes; type: cell-based, Enterobacter aerogenes; conditions: 50 µM, 24 h, inhibition of growth, mean ± SD; for inhibition at 50 µM: Klebsiella aerogenes, ATCC13048, 24 h, read-out: Inhibitory effect (%) E. aerogenes ATCC 13048
Summary of the method: (§1)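 Broth microdilution per CLSI/EUCAST in Mueller Hinton II broth, 5×10^5 cfu/mL, 24 h at 37°C with agitation; growth by absorbance at 620 nm versus controls. Compounds first screened at 50 µM.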

E. coli ATCC 25922 = assay: Broth microdilution assay, E. coli; type: cell-based, Escherichia coli; conditions: for inhibition at 50 µM: Escherichia coli, ATCC25922, 24 h, read-out: Inhibitory effect (%) E. coli ATCC 25922
Summary of the method: as §1

E. faecalis ATCC 29212 = assay: Broth microdilution assay, E. faecalis; type: cell-based, Enterococcus faecalis; conditions: 50 µM, 24 h, inhibition of growth, mean ± SD; for inhibition at 50 µM: Enterococcus faecalis, ATCC29212, 24 h, read-out: Inhibitory effect (%) E. faecalis ATCC 29212
Summary of the method: as §1

P. aeruginosa ATCC 27853 = assay: Broth microdilution assay, P. aeruginosa; type: cell-based, Pseudomonas aeruginosa; conditions: for inhibition at 50 µM: Pseudomonas aeruginosa, ATCC27853, 24 h, read-out: Inhibitory effect (%) P. aeruginosa ATCC 27853
Summary of the method: as §1

S. aureus ATCC 25923 = assay: Broth microdilution assay, S. aureus; type: cell-based, Staphylococcus aureus; conditions: 50 µM, 24 h, inhibition of growth, mean ± SD; for inhibition at 50 µM: Staphylococcus aureus, ATCC25923, 24 h, read-out: Inhibitory effect (%) S. aureus ATCC 25923
Summary of the method: as §1

C. albicans ATCC 90028 = assay: Broth microdilution assay, C. albicans; type: cell-based, Candida albicans; conditions: for inhibition at 50 µM: Candida albicans, ATCC90028, 48 h, read-out: Inhibitory effect (%) C. albicans ATCC 90028
Summary of the method: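 Candida albicans ATCC 90028 was grown on Sabouraud Dextrose Agar at 27°C for 16–18 h, then suspended in sterile 0.9% saline. Broth microdilution in clear 96-well plates mixed equal volumes of yeast suspension and diluted sample. Plates were incubated with agitation at 35°C for 48 h. Absorbance at 620 nm was read at 0, 24 and 48 h, and growth inhibition was expressed as a percentage relative to controls.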

Huh-7 cells = assay: in vitro; type: cell-based, human; conditions: for Cytotoxicity (%) Huh-7 cells: 50 µM
Summary of the method: (§2)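 Cytotoxicity read-out: intracellular ATP (CellTiter-Glo luminescence) in Huh-7 hepatoma cells seeded at 20000 cells/well, cultured overnight, then exposed to compounds for 24 h at 37°C in 5% FBS medium. Polymyxin B sulphate (15000 IU/mL) served as positive control.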

[1] = tested on: all microbial strains tested; assay: Primary antimicrobial screening, all strains; type: cell-based; conditions: 50 µM
Excerpt: Gram-negative strains Escherichia coli (ATCC 25922), Enterobacter aerogenes (ATCC 13048) and Pseudomonas aeruginosa (ATCC 27853), Gram-positive strains Staphylococcus aureus (ATCC 25923) and Enterococcus faecalis (ATCC 29212), and fungal strain Candida albicans (ATCC 90028) were obtained from Microbiologics Inc., and used for the antimicrobial screening. Strains were selected according to the guidelines set for clinical laboratories by Clinical and Laboratory Standards Institute [CLSI, formerly National Committee on Clinical Laboratory Standards [22]] and the European Committee on Antimicrobial Susceptibility Testing (EUCAST). Bacterial strains were grown on Mueller Hinton II Agar (MHA) (BBL, BD) and Mueller Hinton II broth (MHB) (BBL, BD), whereas Candida was initiated on Sabouraud Dextrose Agar (SDA) (Difco, BD) plates. Media were prepared into MilliQ water according to manufacturer’s instruction and autoclaved at 121°C for 15 min. Bacteria were plated on MHA plates and incubated at 37°C for 16–18 h. […] Absorbance was measured at 620 nm with Victor plate reader (Wallac 1420, Perkin Elmer) at 0, 4 and 24 h with the bacteria, and at 0, 24 and 48 h with Candida. The antimicrobial activity of the samples was calculated from the absorbance values by comparing to the controls, and expressed as a percentage inhibition of growth. […]

in vitro = type: cell-based, human; conditions: human
Summary of the method: as §2

[2] = tested on: S. aureus and E. faecalis; set-up: method as in PMID 18835348; conditions: ref 36; cited from earlier work
[3] = 50 µM, 24 h, inhibition of growth, mean ± SD
[4] = 24 h exposure, ATP content, 5% FBS

| Structure (SMILES) | Cytotoxicity (%) Huh-7 cells (Huh-7 cells; [4]) | inhibition at 50 µM (E. aerogenes ATCC 13048) | inhibition at 50 µM (E. coli ATCC 25922) | inhibition at 50 µM (E. faecalis ATCC 29212) | inhibition at 50 µM (P. aeruginosa ATCC 27853) | inhibition at 50 µM (S. aureus ATCC 25923) | inhibition at 50 µM (C. albicans ATCC 90028) | MIC against S. aureus and E. faecalis [2] | other results |
| --- | --- | --- | --- | --- | --- | --- | --- | --- | --- |
| C=C(C)C1CCC2(COC(C)=O)CCC3(C)C(CCC4C5(C)CCC(=O)C(C)(C)C5CCC43C)C12 (stereo not drawn) [Compound 21] | -3.9±1.1% |  |  |  |  |  |  |  | Inhibitory effect (%) E. aerogenes ATCC 13048 (E. aerogenes ATCC 13048): 12.6±6.2%; Inhibitory effect (%) E. coli ATCC 25922 (E. coli ATCC 25922; [3]): 2.6±1.8%; Inhibitory effect (%) E. faecalis ATCC 29212 (E. faecalis ATCC 29212): 5.7±13.4%; Inhibitory effect (%) P. aeruginosa ATCC 27853 (P. aeruginosa ATCC 27853; [3]): 4.7±2.0%; Inhibitory effect (%) S. aureus ATCC 25923 (S. aureus ATCC 25923): 0.7±3.4%; Inhibitory effect (%) C. albicans ATCC 90028 (C. albicans ATCC 90028; 50 µM, 48 h at 35°C, inhibition of growth, mean ± SD): -13.9±24.7%; Activity against all microbial strains tested [1]: inactive |
| C=C(C)C1CCC2(C=NO)CCC3(C)C(CCC4C5(C)CCC(O)C(C)(C)C5CCC43C)C12 (stereo not drawn) [Compound 31, betulin-28-oxime] |  | 14.6 ± 0.9% | 1.9 ± 4% | 41 ± 3.4% | 5.4 ± 2.2% | 6.4 ± 3.4% | -73.5% |  | IC50 at 24 h (in vitro): 25 µM; cytotoxicity at 24 h, 50 µM (in vitro; Cytotoxicity (%) Huh-7 cells): 61%; inhibition at 100 µM (Huh-7 cells; Homo sapiens, Huh-7, 100 µM, 24 h, read-out: Inhibition in ATP assay, Huh-7 cells): 60%; Cytotoxicity (%) Huh-7 cells (Huh-7 cells; human, 24 h): 61.5±2.0% |
| CCn1c(=O)n2n(c1=O)C1(C(C)C)CCC3(COC(C)=O)CCC4(C)C(=C31)C2CC1C2(C)CCC(OC(C)=O)C(C)(C)C2CCC14C (stereo not drawn) [Compound 43] | 86.0±2.0% | 18.5 ± 2.2% | -3.7% | 57.1 ± 4.4% | 1.7 ± 1.7% | 2.9 ± 0.7% | -9.7% |  | cytotoxicity at 24 h, 50 µM (in vitro; 50 µM, 24 h exposure, ATP content, 5% FBS, read-out: Cytotoxicity (%) Huh-7 cells): 85%; IC50 at 24 h (in vitro; 24 h exposure, ATP assay, 5% FBS, read-out: IC50 cytotoxicity Huh-7 cells): 16 µM; Effect on Huh-7 cell monolayer in ATP assay (Huh-7 cells; 100 µM, 24 h): completely destroyed the cell monolayer |
| CC1(C)CC[C@]2(C(=O)O)CC[C@]3(C)C(=CC[C@@H]4[C@@]5(C)CC[C@H](O)C(C)(C)[C@@H]5CC[C@]43C)[C@@H]2C1 [OA, oleanolic acid] |  |  |  |  |  |  |  | 8 to 64 µg/mL |  |
| C[C@H]1[C@H](C)CC[C@]2(C(=O)O)CC[C@]3(C)C(=CC[C@@H]4[C@@]5(C)CC[C@H](O)C(C)(C)[C@@H]5CC[C@]43C)[C@H]12 [UA, ursolic acid] |  |  |  |  |  |  |  | 4 to 8 µg/mL |  |
